According to patent US20230120597A1, “CO-AGONISTS AT GLP-1 AND GIP RECEPTORS SUITABLE FOR ORAL DELIVERY” (Novo Nordisk A/S, priority 2020, published 2023):
Read-outs that look alike come from different tables or passages of the source. Starred links: 1 amine or outer side, 2 acyl side, 3 side chain; linkers in the order of their positions; H or OH if unused. Non-standard residues stand in square brackets, D forms with d. Residues, ends and D or L forms follow the SMILES beside them. Groups on a side chain read outwards from the residue. *: point of attachment. C18 diacid = O=C(O)CCCCCCCCCCCCCCCCC(=O)*; γGlu = O=C(O)[C@H](CCC(=O)[*:2])N[*:1]; εLys = N[C@@H](CCCCN[*:1])C(=O)[*:2]; Aib = CC(C)(N)C(=O)O

Experiments:
human GLP-1 receptor = target: T1, human GLP-1 receptor (Homo sapiens, UniProt P43220); experiment: In vitro functional potency, CRE luciferase reporter gene assay, whole BHK cells expressing hGLP-1R; assay type: cell-based; conditions: BHK CRE luc2P hGLP-1R cells
T1 construct: expressed in transfected cells; host or cells: BHK (parent line BHKTS13), clone BHK CRE luc2P hGLP-1R
T1 sequence (P43220 24-463): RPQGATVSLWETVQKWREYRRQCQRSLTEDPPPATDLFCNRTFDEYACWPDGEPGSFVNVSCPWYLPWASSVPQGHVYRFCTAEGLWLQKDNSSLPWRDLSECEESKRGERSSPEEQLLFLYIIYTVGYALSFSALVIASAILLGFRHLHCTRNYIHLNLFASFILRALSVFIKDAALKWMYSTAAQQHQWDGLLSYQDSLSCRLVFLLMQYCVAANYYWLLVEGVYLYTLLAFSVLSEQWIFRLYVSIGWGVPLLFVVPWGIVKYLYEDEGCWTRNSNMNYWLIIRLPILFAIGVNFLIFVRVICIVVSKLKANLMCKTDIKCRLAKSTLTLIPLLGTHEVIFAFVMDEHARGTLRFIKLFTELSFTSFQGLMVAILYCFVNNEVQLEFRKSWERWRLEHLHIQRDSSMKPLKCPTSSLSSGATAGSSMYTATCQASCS

[1] = Pharmacokinetic study in minipigs after i.v. administration; conditions: female, Gottingen, minipig, in vivo, iv
Method: The purpose of this example is to determine the half-life in vivo of the derivatives of the present invention after i.v. administration to minipigs, i.e. the prolongation of their time in the body and thereby their time of action. This is done in a pharmacokinetic (PK) study, where the terminal half-life of the derivative in question is determined. By terminal half-life is generally meant the period of time it takes to halve a certain plasma concentration, measured after the initial distribution phase.
Female Gottingen minipigs were obtained from Ellegaard Gottingen Minipigs (Dalmose, Denmark) approximately 7-14 months of age and weighing from approximately 16-35 kg were used in the studies. The minipigs were housed individually and fed restrictedly once daily with SDS minipig diet (Special Diets Services, Essex, UK).
After at 3 weeks of acclimatisation two permanent central venous catheters were implanted in vena cava caudalis in each animal. […]
Plasma was pipetted into Micronic tubes on dry ice and kept at −20° C. until analysed for plasma concentration of the compounds using ELISA, or a similar antibody-based assay, or LCMS. Individual plasma concentration-time profiles were analysed by a non-compartmental model in Phoenix WinNonLin ver. […] (Pharsight Inc., Mountain View, Calif., USA), and the resulting terminal half-lives (harmonic mean) determined.

With `CC[C@H](C)[C@H](NC(=O)[C@H](Cc1ccccc1)NC(=O)[C@H](CCC(=O)O)NC(=O)[C@H](CCCNC(=N)N)NC(=O)[C@H](C)NC(=O)[C@H](C)NC(=O)[C@H](CCC(N)=O)NC(=O)[C@H](CCCCNC(=O)[C@@H](N)CCCCNC(=O)[C@@H](N)CCCCNC(=O)CC[C@H](NC(=O)CCCCCCCCCCCCCCCCC(=O)O)C(=O)O)NC(=O)[C@H](CCC(=O)O)NC(=O)[C@H](CC(C)C)NC(=O)[C@H](CC(C)C)NC(=O)[C@@H](NC(=O)[C@H](CO)NC(=O)[C@H](Cc1ccc(O)cc1)NC(=O)[C@H](CC(=O)O)NC(=O)[C@H](CO)NC(=O)[C@@H](NC(=O)[C@H](Cc1ccccc1)NC(=O)[C@@H](NC(=O)CNC(=O)[C@H](CCC(=O)O)NC(=O)C(C)(C)NC(=O)[C@@H](N)Cc1ccc(O)cc1)[C@@H](C)O)[C@@H](C)O)[C@@H](C)CC)C(=O)N[C@@H](CC(N)=O)C(=O)N[C@@H](Cc1c[nH]c2ccccc12)C(=O)N[C@@H](CC(C)C)C(=O)N[C@@H](CC(C)C)C(=O)N[C@@H](C)C(=O)NCC(=O)NCC(=O)N1CCC[C@H]1C(=O)N[C@@H](CO)C(=O)N[C@@H](CO)C(=O)NCC(=O)N[C@@H](C)C(=O)N1CCC[C@H]1C(=O)N1CCC[C@H]1C(=O)N1CCC[C@H]1C(=O)N[C@@H](CO)C(=O)O` [Compound No. 15] (H-Y[Aib]EGTFTSDYSILLEK([εLys-εLys-γGlu-C18 diacid])QAAREFINWLLAGGPSSGAPPPS-OH) the EC50 (human GLP-1 receptor; 0% HSA, read-out: hGLP-1R, CRE Luc 0% HSA EC50) was 0.005 nM, the EC50 (human GLP-1 receptor; hGLP-1R, CRE Luc 1% HSA EC50, 1% HSA) was 0.13 nM and the half-life [1] was 36 h.
